A short description of the data set: Dissolution measurement of granules of Example 1 (paddle, 900 ml SGFsp, 37° C.). The data set is classed as physicochemical. The following applies: paddle 75 rpm, 50 mg ITZ, up to 120 min. As for the experimental part:
For measuring the dissolution, granules as obtained in Example 1 were used directly without further processing. 3 samples per temperature setup were used. 500 mg 10% ITZ granulate were weighted (Mettler Toledo Delta Range XP105) which equals 50 mg ITZ API.
Dissolution was performed using a Sotax AT7 smart with an online Photometer Specord 200+ from Analytik Jena. As a medium 900 ml SGF.sp (20 g NaCl, 800 ml 0.1 M HCl ad 10.0 L VE-water) at 37° C.±0.5 was used. The following settings were used: Rotation speed 75 rpm; Paddle method; Pre-filter: Glass Mircofiber Filters GE Whatmann GF/D Diameter 25 mm, 5 mm HELMA flow-through cuvette, Sampling Points: 5,20,35,50,60,120 Min.
The granulation with polyvinyl alcohol at a temperature between 140° C. to 170° C. increases the solubility of the compound (lines 2 to 6). At 175° C. the solubility suddenly increases. With higher temperature solubility is further enhanced. An immediate release can be observed for temperatures of 180° C. to 190° C. (lines 8 to 10). With a further temperature increase above the melting temperature of PCA (line 11; 200° C.) the drug release rates are delayed.

Turning to `CCC(C)n1ncn(-c2ccc(N3CCN(c4ccc(OCC5COC(Cn6cncn6)(c6ccc(Cl)cc6Cl)O5)cc4)CC3)cc2)c1=O` (stereo not shown) [crystalline itraconazole, itraconazole], the “solubility / drug release of itraconazole in the release medium (FIG. 3)” value is listed as “very low solubility”.

The record behind these values is patent publication US20240189239A1, “PROCESS FOR CONTINUOUS HOT MELT GRANULATION OF LOW SOLUBLE PHARMACEUTICALS” (Merck Patent GmbH, priority 2021, published 2024).
